Patent US20260083843A1, “IMMUNE CELLS TARGETING EPCAM AND MEDICAL USE THEREOF” (SUZHOU IMMUNOFOCO BIOTECHNOLOGY CO., LTD, priority 2022, published 2026)

System: MKN-45-luc
Test: Abdominal cavity metastasis model of gastric cancer
Type: in vivo, NCG mice
Details: single dose of 1.5 mg/kg i.p., Day 0; FIG. 3
Protocol: To study whether EpCAM-CAR-T (the amino acid sequence of the chimeric antigen receptor of EpCAM-CAR-T is set forth in SEQ ID NO: 16) can clear abdominal metastatic tumors of gastric cancer and whether the chemotherapeutic drug docetaxel can enhance the efficacy of CAR-T, we constructed an abdominal cavity metastasis model of gastric cancer based on a gastric cancer cell line MKN-45-luc. Modeling: human gastric cancer cells MKN-45-luc were cultured in an RPMI-1640 culture medium with 10% FBS in an incubator at 37° C. with 5% CO2. Before continuous cell culturing for ten generations, the cells were inoculated into the abdominal cavity of mice, about 1.5×10^6 MKN-45-luc cells were resuspended in PBS, and inoculated into NCG mice by intraperitoneal injection in a volume of […]. Grouping and administration: 7 days after the inoculation, the growth of tumor cells in the abdominal cavity was detected using a small animal in vivo imaging fluorometer. The mice were randomly grouped according to the body weight and tumor size (fluorescence intensity), with 5 animals in each group, for a total of 6 groups. The day of grouping was defined as day 0.

With `CC(=O)O[C@@]12CO[C@@H]1C[C@H](O)[C@@]1(C)C(=O)[C@H](O)C3=C(C)[C@@H](OC(=O)[C@H](O)[C@@H](NC(=O)OC(C)(C)C)c4ccccc4)C[C@@](O)([C@@H](OC(=O)c4ccccc4)[C@H]21)C3(C)C` [docetaxel] the efficacy was “did not produce significant efficacy”.
